Source: ChEMBL document CHEMBL1149870, “Synthesis and antibacterial activity of egonol derivatives” (2008)
≈ marks a conversion by molar mass, not a printed value. Calls of active or inactive are those of the source. The calls are words filed in the database; no cut-off is given here.

What was measured:
Assay type in all cases: functional
[1] = system: Staphylococcus aureus; test: Antibacterial activity against Staphylococcus aureus by Muller Hilton broth method
[2] = system: Bacillus subtilis; test: Antibacterial activity against Bacillus subtilis by Muller Hilton broth method
[3] = system: Candida albicans; test: Antifungal activity against Candida albicans by Muller Hilton broth method
[4] = system: Escherichia coli; test: Antibacterial activity against Escherichia coli by Muller Hilton broth method

| SMILES | MIC [1] [µg/mL] | MIC [2] [µg/mL] | MIC [3] [µg/mL] | MIC [4] [µg/mL] | Activity [1] | Activity [4] | Activity [3] |
| --- | --- | --- | --- | --- | --- | --- | --- |
| COc1cc(CCCOCCCBr)cc2cc(-c3ccc4c(c3)OCO4)oc12 | 256 (≈ 572 µM) | 256 (≈ 572 µM) | 800 (≈ 1790 µM) | 800 (≈ 1790 µM) | – | – | – |
| COc1cc(CCCI)cc2cc(-c3ccc4c(c3)OCO4)oc12 | 800 (≈ 1830 µM) | 800 (≈ 1830 µM) | 800 (≈ 1830 µM) | 800 (≈ 1830 µM) | – | – | – |
| COc1cc(CCCOC(=O)c2ccccc2)cc2cc(-c3ccc4c(c3)OCO4)oc12 | 800 (≈ 1860 µM) | 800 (≈ 1860 µM) | 800 (≈ 1860 µM) | 800 (≈ 1860 µM) | – | – | – |
| COc1cc(CCC=O)cc2cc(-c3ccc4c(c3)OCO4)oc12 | 64 (≈ 197 µM) | 256 (≈ 789 µM) | 128 (≈ 395 µM) | 800 (≈ 2470 µM) | – | – | – |
| COc1cc(CCCOC=O)cc2cc(-c3ccc4c(c3)OCO4)oc12 | 400 (≈ 1130 µM) | 400 (≈ 1130 µM) | 400 (≈ 1130 µM) | 400 (≈ 1130 µM) | – | – | – |
| COc1c(Br)c(CCCO)cc2cc(-c3ccc4c(c3)OCO4)oc12 | 800 (≈ 1970 µM) | 800 (≈ 1970 µM) | 800 (≈ 1970 µM) | 800 (≈ 1970 µM) | – | – | – |
| COc1cc(CCCO)cc2cc(-c3ccc4c(c3)OCO4)oc12 [EGONOL] | 800 (≈ 2450 µM) | 800 (≈ 2450 µM) | 800 (≈ 2450 µM) | 800 (≈ 2450 µM) | – | – | – |
| COc1cc(CCCO)cc2c([N+](=O)[O-])c(-c3ccc4c(c3)OCO4)oc12 | – | 800 (≈ 2150 µM) | 800 (≈ 2150 µM) | – | inactive | inactive | – |
| COc1cc(CCCBr)cc2cc(-c3ccc4c(c3)OCO4)oc12 | 800 (≈ 2060 µM) | 400 (≈ 1030 µM) | 400 (≈ 1030 µM) | 800 (≈ 2060 µM) | – | – | – |
| COc1cc(CCCC#N)cc2cc(-c3ccc4c(c3)OCO4)oc12 | 800 (≈ 2390 µM) | 800 (≈ 2390 µM) | – | 800 (≈ 2390 µM) | – | – | inactive |
| COc1cc(CCCCl)cc2cc(-c3ccc4c(c3)OCO4)oc12 | 256 (≈ 742 µM) | 128 (≈ 371 µM) | 64 (≈ 186 µM) | 256 (≈ 742 µM) | – | – | – |
